The subject of assay [1] is Ndc80c^dwarf. The assay can be described thus: Fluorescence polarization competition, reporter Bodipy-FL Mps1(137–171). The format is binding, S. cerevisiae. The source says: We measured by fluorescence polarization the affinity of Ndc80^dwarf, a shortened version of Ndc80c[51], for a peptide comprising Mps1 residues 137–171, plus a C-terminal cysteine for labeling. We labeled the peptide with the Bodipy fluorophore and determined fluorescence anisotropy as a function of Ndc80c^dwarf concentration (Figure 3A). We then used unlabeled wild-type and mutant peptides in a competition format, at a fixed Ndc80c^dwarf concentration (Figures 3B,C). The mutant peptides corresponded to mutations characterized in one of the accompanying papers. […] Mutating either the basic residues or the hydrophobic residues in the first part of the consensus motif or the conserved arginine at the end of the second part lowered affinity (raised the Ki) by roughly two logs; mutating both the final arginine and the hydrophobic residues eliminated any detectable competition.
(§1) Figure 3. Fluorescence polarization measurements of Ndc80c^dwarf binding peptides from the N-terminal extensions of Mps1 and Ipl1. (A) Polarization of fluorescence from 20 nM Bodipy-FL Mps1(137–171) (Mps1 residues 137–171 plus a C-terminal cysteine modified with Bodipy-FL -- see Methods) and Bodipy-FL Ipl1 (26–39;45–59) as a function of Ndc80c^dwarf concentration. (B) Competition binding experiment: unlabeled competitor peptides (see figure annotation) were added in twofold serial dilutions to Bodipy-FL Mps1(137–171) and Ndc80c^dwarf at final concentrations of 20 nM and 500 nM respectively. Loss of polarization indicates displacement of bound Bodipy-FL Mps1(137–171) by the competitor. (C) As in (B), with competitor Mps1(137–171) peptides containing mutations that reduce affinity for Ndc80c[40]. (D) Polarization of fluorescence from 20 nM Bodipy-FL Mps1(137–171) as a function of the concentration of Ndc80c^dwarf bearing mutations in Nuf2 that interfere with its Mps1 interaction in cells. (E) As in (B), but with 20 nM Bodipy-FL Ipl1 (26–39;45–59) as the fluorescent reporter and 27μM Ndc80c^dwarf. […] For the Ipl1 peptide, the second copy of the motif, not used for the fluorescence polarization experiments, is shown in the bottom line.
Mps1 (137–171), Ipl1 (26–39;45–59), and Dam1 (254–270;290–305) peptides with added C-terminal cysteines, were synthesized by the Tufts University Core Facility. […] Fluorescence polarization was measured at 25°C with an Envision plate reader (Perkin Elmer) equipped with a filter set optimized for fluorescence polarization of FITC, which has the same absorption and emission spectra as those of Bodipy FL. […] Fluorescence polarization was measured in triplicate. […] An equal volume of a buffer-matched solution containing 40 nM Bodipy-FL labelled peptide and 1 μM Ndc80c^dwarf was added to each of the dilutions, and fluorescence polarization was measured in triplicate. […]
For orientation: In fluorescence polarisation assays a small probe gives low polarisation when free and higher when bound to something large.

Assay [2] deals with Ndc80c^dwarf. The assay can be described thus: Fluorescence polarization competition, reporter Bodipy-FL Ipl1 (26–39;45–59). The class given is binding, S. cerevisiae. Particulars: 20 nM Bodipy-FL Ipl1 (26–39;45–59), 27μM Ndc80c^dwarf; competitor in twofold serial dilutions; 25°C; Figure 3E. As for the experimental part:
as §1, with “(B) Competition binding experiment: unlabeled competitor peptides (see figure annotation) were added in twofold serial dilutions to Bodipy-FL Mps1(137–171) and Ndc80c^dwarf at final concentrations of 20 nM and 500 nM respectively.” left out, “cells.” for “cells. (E) As in (B), but with 20 nM Bodipy-FL Ipl1 (26–39;45–59) as the fluorescent reporter and 27μM Ndc80c^dwarf.”
We measured the Ipl1 peptide affinity, both directly (Figure 3A) and by measuring displacement of a fluorophore-labeled Mps1 peptide (Figure 3B) as a function of increasing concentrations of unlabeled Ipl1 peptide. […]
Mps1 (137–171), Ipl1 (26–39;45–59), and Dam1 (254–270;290–305) peptides with added C-terminal cysteines, were synthesized by the Tufts University Core Facility. […] Fluorescence polarization was measured in triplicate. […]

This note sets out measurements from paper PMC11847324, “A communication hub for phosphoregulation of kinetochore-microtubule attachment” (Current biology : CB, 2024).

Ndc80c^dwarf, sequence (P33895 1-150): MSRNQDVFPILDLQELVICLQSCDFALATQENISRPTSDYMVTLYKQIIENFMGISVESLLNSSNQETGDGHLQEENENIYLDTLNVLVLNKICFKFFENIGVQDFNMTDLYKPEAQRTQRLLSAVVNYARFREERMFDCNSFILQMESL
Ndc80c^dwarf, sequence (P40460 115-310, further chain): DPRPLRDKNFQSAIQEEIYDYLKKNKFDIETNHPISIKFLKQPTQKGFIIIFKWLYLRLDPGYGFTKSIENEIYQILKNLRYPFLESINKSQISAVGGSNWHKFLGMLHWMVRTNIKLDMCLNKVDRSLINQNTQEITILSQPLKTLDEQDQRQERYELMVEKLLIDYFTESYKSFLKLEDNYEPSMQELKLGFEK

Regarding “RQNMKEDITAKYAERRSKRFLISNRTTKLGPAKRAC [Mps1 (137–171), peptide comprising Mps1 residues 137–171, plus a C-terminal cysteine for labeling]”, the “displacement of bound Bodipy-FL Mps1(137–171) by unlabeled competitor peptide” value in the assay on Ndc80c^dwarf [1] (20 nM Bodipy-FL Mps1(137–171), 500 nM Ndc80c^dwarf, competitor in twofold serial dilutions, 20 mM Tris pH 7.2, 100 mM NaCl, 2 mM TCEP, 25°C, triplicate, Figures 3B,C) was “displaced the fluorescent Mps1 peptide, at a concentration consistent with the affinity measured by direct titration”. The “relative affinity of peptides for Ndc80c^dwarf (comparison in words)” value with Ndc80c^dwarf [1] (direct titration (Figure 3A) and competition with Bodipy-FL Mps1(137–171) (Figure 3B)) is reported as “nearly the same”. The “displacement of Bodipy-FL Ipl1 (26–39;45–59) by unlabeled competitor peptide” value in the assay with Ndc80c^dwarf [2] is given as “competed strongly”.
